Results from ChEMBL document CHEMBL3596195, “Novel cajaninstilbene acid derivatives as antibacterial agents” (Eur J Med Chem, 2015).
Converted amounts (≈) assume the structure as drawn.

Experiments:
Format in all cases: functional
Staphylococcus aureus [1] = test: Antibacterial activity against methicillin-resistant Staphylococcus aureus ATCC510019 assessed as bacterial growth inhibition after 24 hrs by broth dilution method; settings: ATCC510019, 24 h
Escherichia coli = test: Antibacterial activity against Escherichia coli ATCC25922 assessed as bacterial growth inhibition after 24 hrs by broth dilution method; settings: ATCC25922, 24 h
Staphylococcus aureus [2] = test: Antibacterial activity against methicillin-resistant Staphylococcus aureus ATCC43300 assessed as bacterial growth inhibition after 24 hrs by broth dilution method; settings: ATCC43300, 24 h
Staphylococcus aureus [3] = test: Antibacterial activity against Staphylococcus aureus ATCC25923 assessed as bacterial growth inhibition after 24 hrs by broth dilution method; settings: ATCC25923, 24 h
Pseudomonas aeruginosa = test: Antibacterial activity against Pseudomonas aeruginosa ATCC2785 assessed as bacterial growth inhibition after 24 hrs by broth dilution method; settings: ATCC2785, 24 h
Staphylococcus aureus [4] = test: Antibacterial activity against methicillin-resistant Staphylococcus aureus ATCC52056 assessed as bacterial growth inhibition after 24 hrs by broth dilution method; settings: ATCC52056, 24 h
Bacillus subtilis = test: Antibacterial activity against Bacillus subtilis ATCC6633 assessed as bacterial growth inhibition after 24 hrs by broth dilution method; settings: ATCC6633, 24 h
Proteus vulgaris = test: Antibacterial activity against Proteus vulgaris ATCC49101 assessed as bacterial growth inhibition after 24 hrs by broth dilution method; settings: ATCC49101, 24 h
Staphylococcus aureus [5] = test: Antibacterial activity against methicillin-resistant Staphylococcus aureus ATCC523512 assessed as bacterial growth inhibition after 24 hrs by broth dilution method; settings: ATCC523512, 24 h
Staphylococcus aureus [6] = test: Antibacterial activity against methicillin-resistant Staphylococcus aureus ATCC62202 assessed as bacterial growth inhibition after 24 hrs by broth dilution method; settings: ATCC62202, 24 h
Staphylococcus aureus [7] = test: Antibacterial activity against methicillin-resistant Staphylococcus aureus ATCC513045 assessed as bacterial growth inhibition after 24 hrs by broth dilution method; settings: ATCC513045, 24 h
Staphylococcus aureus [8] = test: Antibacterial activity against methicillin-resistant Staphylococcus aureus ATCC515992 assessed as bacterial growth inhibition after 24 hrs by broth dilution method; settings: ATCC515992, 24 h
Staphylococcus aureus [9] = test: Antibacterial activity against methicillin-resistant Staphylococcus aureus ATCC51033 assessed as bacterial growth inhibition after 24 hrs by broth dilution method; settings: ATCC51033, 24 h
Staphylococcus aureus [10] = test: Antibacterial activity against methicillin-resistant Staphylococcus aureus ATCC425055 assessed as bacterial growth inhibition after 24 hrs by broth dilution method; settings: ATCC425055, 24 h
[11] = tested on: Staphylococcus epidermidis; test: Antibacterial activity against Staphylococcus epidermidis ATCC12228 assessed as bacterial growth inhibition after 24 hrs by broth dilution method; settings: ATCC12228, 24 h

COc1cc(O)c(C(=O)O)c(/C=C/c2ccccc2)c1
MIC (Staphylococcus aureus [1]): > 128 µg/mL | MIC (Escherichia coli): > 128 µg/mL | MIC (Staphylococcus aureus [2]): > 128 µg/mL | MIC (Staphylococcus aureus [3]): > 128 µg/mL | MIC (Pseudomonas aeruginosa): > 128 µg/mL | MIC (Staphylococcus aureus [4]): 128 µg/mL (≈ 474 µM) | MIC (Bacillus subtilis): 64 µg/mL (≈ 237 µM) | MIC (Proteus vulgaris): > 128 µg/mL | MIC (Staphylococcus aureus [5]): > 128 µg/mL | MIC (Staphylococcus aureus [6]): 128 µg/mL (≈ 474 µM) | MIC (Staphylococcus aureus [7]): > 128 µg/mL | MIC (Staphylococcus aureus [8]): > 128 µg/mL | MIC (Staphylococcus aureus [9]): > 128 µg/mL | MIC (Staphylococcus aureus [10]): > 128 µg/mL | MIC [11]: > 128 µg/mL

COc1cc(O)c(C(=O)O)c(/C=C/c2cccc(F)c2)c1
MIC (Staphylococcus aureus [1]): > 128 µg/mL | MIC (Escherichia coli): > 128 µg/mL | MIC (Staphylococcus aureus [2]): > 128 µg/mL | MIC (Staphylococcus aureus [3]): > 128 µg/mL | MIC (Pseudomonas aeruginosa): > 128 µg/mL | MIC (Staphylococcus aureus [4]): > 128 µg/mL | MIC (Bacillus subtilis): > 128 µg/mL | MIC (Proteus vulgaris): > 128 µg/mL | MIC (Staphylococcus aureus [5]): 128 µg/mL (≈ 444 µM) | MIC (Staphylococcus aureus [6]): > 128 µg/mL | MIC (Staphylococcus aureus [7]): > 128 µg/mL | MIC (Staphylococcus aureus [8]): > 128 µg/mL | MIC (Staphylococcus aureus [9]): > 128 µg/mL | MIC (Staphylococcus aureus [10]): > 128 µg/mL | MIC [11]: 64 µg/mL (≈ 222 µM)

COc1ccc(/C=C/c2cc(OC)cc(O)c2C(=O)O)cc1
MIC (Staphylococcus aureus [1]): > 128 µg/mL | MIC (Escherichia coli): > 128 µg/mL | MIC (Staphylococcus aureus [2]): > 128 µg/mL | MIC (Staphylococcus aureus [3]): > 128 µg/mL | MIC (Pseudomonas aeruginosa): > 128 µg/mL | MIC (Staphylococcus aureus [4]): > 128 µg/mL | MIC (Bacillus subtilis): 64 µg/mL (≈ 213 µM) | MIC (Proteus vulgaris): > 128 µg/mL | MIC (Staphylococcus aureus [5]): > 128 µg/mL | MIC (Staphylococcus aureus [6]): > 128 µg/mL | MIC (Staphylococcus aureus [7]): > 128 µg/mL | MIC (Staphylococcus aureus [8]): > 128 µg/mL | MIC (Staphylococcus aureus [9]): > 128 µg/mL | MIC (Staphylococcus aureus [10]): > 128 µg/mL | MIC [11]: > 128 µg/mL

COc1cc(/C=C/c2ccccc2)c(C(=O)O)c(O)c1CC=C(C)C
MIC (Staphylococcus aureus [1]): 32 µg/mL (≈ 94.6 µM) | MIC (Escherichia coli): > 128 µg/mL | MIC (Staphylococcus aureus [2]): 16 µg/mL (≈ 47.3 µM) | MIC (Staphylococcus aureus [3]): 16 µg/mL (≈ 47.3 µM) | MIC (Pseudomonas aeruginosa): > 64 µg/mL | MIC (Staphylococcus aureus [4]): 16 µg/mL (≈ 47.3 µM) | MIC (Bacillus subtilis): 32 µg/mL (≈ 94.6 µM) | MIC (Proteus vulgaris): > 64 µg/mL | MIC (Staphylococcus aureus [5]): 32 µg/mL (≈ 94.6 µM) | MIC (Staphylococcus aureus [6]): 8 µg/mL (≈ 23.6 µM) | MIC (Staphylococcus aureus [7]): 16 µg/mL (≈ 47.3 µM) | MIC (Staphylococcus aureus [8]): 32 µg/mL (≈ 94.6 µM) | MIC (Staphylococcus aureus [9]): 16 µg/mL (≈ 47.3 µM) | MIC (Staphylococcus aureus [10]): 16 µg/mL (≈ 47.3 µM) | MIC [11]: 16 µg/mL (≈ 47.3 µM)

COC(=O)c1c(/C=C/c2ccccc2)cc(OC)c(CC=C(C)C)c1O
MIC (Staphylococcus aureus [1]): > 128 µg/mL | MIC (Escherichia coli): > 128 µg/mL | MIC (Staphylococcus aureus [2]): 128 µg/mL (≈ 363 µM) | MIC (Staphylococcus aureus [3]): > 128 µg/mL | MIC (Pseudomonas aeruginosa): > 128 µg/mL | MIC (Staphylococcus aureus [4]): > 128 µg/mL | MIC (Bacillus subtilis): > 128 µg/mL | MIC (Proteus vulgaris): > 128 µg/mL | MIC (Staphylococcus aureus [5]): > 128 µg/mL | MIC (Staphylococcus aureus [6]): 128 µg/mL (≈ 363 µM) | MIC (Staphylococcus aureus [7]): 128 µg/mL (≈ 363 µM) | MIC (Staphylococcus aureus [8]): > 128 µg/mL | MIC (Staphylococcus aureus [9]): > 128 µg/mL | MIC (Staphylococcus aureus [10]): 128 µg/mL (≈ 363 µM) | MIC [11]: > 128 µg/mL

COC(=O)c1c(/C=C/c2ccccc2F)cc(OC)c(CC=C(C)C)c1O
MIC (Staphylococcus aureus [1]): > 128 µg/mL | MIC (Escherichia coli): > 128 µg/mL | MIC (Staphylococcus aureus [2]): 128 µg/mL (≈ 346 µM) | MIC (Staphylococcus aureus [3]): > 128 µg/mL | MIC (Pseudomonas aeruginosa): > 128 µg/mL | MIC (Staphylococcus aureus [4]): > 128 µg/mL | MIC (Bacillus subtilis): > 128 µg/mL | MIC (Proteus vulgaris): > 128 µg/mL | MIC (Staphylococcus aureus [5]): > 128 µg/mL | MIC (Staphylococcus aureus [6]): 128 µg/mL (≈ 346 µM) | MIC (Staphylococcus aureus [7]): 128 µg/mL (≈ 346 µM) | MIC (Staphylococcus aureus [8]): > 128 µg/mL | MIC (Staphylococcus aureus [9]): > 128 µg/mL | MIC (Staphylococcus aureus [10]): 128 µg/mL (≈ 346 µM) | MIC [11]: > 128 µg/mL

COC(=O)c1c(/C=C/c2cccc(F)c2)cc(OC)c(CC=C(C)C)c1O
MIC (Staphylococcus aureus [1]): 128 µg/mL (≈ 346 µM) | MIC (Escherichia coli): > 128 µg/mL | MIC (Staphylococcus aureus [2]): > 128 µg/mL | MIC (Staphylococcus aureus [3]): 64 µg/mL (≈ 173 µM) | MIC (Pseudomonas aeruginosa): > 128 µg/mL | MIC (Staphylococcus aureus [4]): > 128 µg/mL | MIC (Bacillus subtilis): 128 µg/mL (≈ 346 µM) | MIC (Proteus vulgaris): > 128 µg/mL | MIC (Staphylococcus aureus [5]): 64 µg/mL (≈ 173 µM) | MIC (Staphylococcus aureus [6]): 128 µg/mL (≈ 346 µM) | MIC (Staphylococcus aureus [7]): 128 µg/mL (≈ 346 µM) | MIC (Staphylococcus aureus [8]): > 128 µg/mL | MIC (Staphylococcus aureus [9]): 128 µg/mL (≈ 346 µM) | MIC (Staphylococcus aureus [10]): > 128 µg/mL | MIC [11]: > 128 µg/mL

COC(=O)c1c(/C=C/c2ccc(Cl)cc2)cc(OC)c(CC=C(C)C)c1O
MIC (Staphylococcus aureus [1]): > 128 µg/mL | MIC (Escherichia coli): > 128 µg/mL | MIC (Staphylococcus aureus [2]): > 128 µg/mL | MIC (Staphylococcus aureus [3]): > 128 µg/mL | MIC (Pseudomonas aeruginosa): > 128 µg/mL | MIC (Staphylococcus aureus [4]): > 128 µg/mL | MIC (Bacillus subtilis): > 128 µg/mL | MIC (Proteus vulgaris): > 128 µg/mL | MIC (Staphylococcus aureus [5]): > 128 µg/mL | MIC (Staphylococcus aureus [6]): 128 µg/mL (≈ 331 µM) | MIC (Staphylococcus aureus [7]): > 128 µg/mL | MIC (Staphylococcus aureus [8]): > 128 µg/mL | MIC (Staphylococcus aureus [9]): > 128 µg/mL | MIC (Staphylococcus aureus [10]): > 128 µg/mL | MIC [11]: 128 µg/mL (≈ 331 µM)

COC(=O)c1c(/C=C/c2ccc(OC)cc2)cc(OC)c(CC=C(C)C)c1O
MIC (Staphylococcus aureus [1]): 128 µg/mL (≈ 335 µM) | MIC (Escherichia coli): > 128 µg/mL | MIC (Staphylococcus aureus [2]): 128 µg/mL (≈ 335 µM) | MIC (Staphylococcus aureus [3]): 128 µg/mL (≈ 335 µM) | MIC (Pseudomonas aeruginosa): > 128 µg/mL | MIC (Staphylococcus aureus [4]): 128 µg/mL (≈ 335 µM) | MIC (Bacillus subtilis): > 128 µg/mL | MIC (Proteus vulgaris): > 128 µg/mL | MIC (Staphylococcus aureus [5]): 128 µg/mL (≈ 335 µM) | MIC (Staphylococcus aureus [6]): > 128 µg/mL | MIC (Staphylococcus aureus [7]): 128 µg/mL (≈ 335 µM) | MIC (Staphylococcus aureus [8]): > 128 µg/mL | MIC (Staphylococcus aureus [9]): > 128 µg/mL | MIC (Staphylococcus aureus [10]): 128 µg/mL (≈ 335 µM) | MIC [11]: > 128 µg/mL

COC(=O)c1c(/C=C/c2cc(OC)c(OC)c(OC)c2)cc(OC)c(CC=C(C)C)c1O
MIC (Staphylococcus aureus [1]): > 128 µg/mL | MIC (Escherichia coli): > 128 µg/mL | MIC (Staphylococcus aureus [2]): > 128 µg/mL | MIC (Staphylococcus aureus [3]): > 128 µg/mL | MIC (Pseudomonas aeruginosa): > 128 µg/mL | MIC (Staphylococcus aureus [4]): > 128 µg/mL | MIC (Bacillus subtilis): > 128 µg/mL | MIC (Proteus vulgaris): > 128 µg/mL | MIC (Staphylococcus aureus [5]): > 128 µg/mL | MIC (Staphylococcus aureus [6]): > 128 µg/mL | MIC (Staphylococcus aureus [7]): > 128 µg/mL | MIC (Staphylococcus aureus [8]): 64 µg/mL (≈ 145 µM) | MIC (Staphylococcus aureus [9]): 128 µg/mL (≈ 289 µM) | MIC (Staphylococcus aureus [10]): > 128 µg/mL | MIC [11]: 64 µg/mL (≈ 145 µM)
